Source: patent US10303923B1, “Quantitation of NETosis using image analysis” (The University of North Carolina at Chapel Hill, priority 2018, dated 2019)
“Also recorded” adds a separate entry of the source. Read-outs that look alike come from different tables or passages of the source.

How the values were obtained:
[1] = test system: neutrophils from SCD patients; assay: NETosis quantitation by CNN image analysis in neutrophils from SCD patients at steady-state; format: cell-based, human; conditions: SCD patients at steady-state (n=7), 2 hours treatment, two-way ANOVA
Description: We next applied this assay to an inflammatory disease that has been suspected of being influenced by NETosis; patients with sickle cell disease (SCD) suffer chronic inflammation due to recurrent ischemia/reperfusion injuries and are hypercoagulable. The hypercoagulability is thought to be due to at least in part to circulating NETs similar to other inflammatory diseases. Soluble components presumably from NETs (DNA and nucleosomes) are detectible in plasma from both SCD patients and humanized SCD mice^11, 12. Furthermore, neutrophils from healthy individuals exposed to plasma from SCD patients causes NET generation. Because SCD neutrophils function at a reduced capacity for oxidative burst and produce less ROS than non-SCD neutrophils, we asked whether the ROS-dependent NETosis pathway is affected^13-15. Only patients at steady-state were included in the study. […] Reduction of neutrophils' oxidative burst capacity also occurs in conditions such as chronic granulomatous disease (CGD), and results in reduced NETosis^16. The divergence of our results from those previously published are possibly due to our observation of NETosis in neutrophils directly without the use of a surrogate NETosis biomarker.
The same conditions for cell isolation and treatment were used for neutrophils from SCD patients at steady-state (n=7), and the results are shown in graphs 206 and 208. […]

[2] = test system: Human neutrophils from healthy volunteers; assay: NETosis quantitation by CNN image analysis in adherent neutrophils from healthy volunteers; format: cell-based; conditions: read-out: EC50 (concentration inducing 50% of neutrophils to undergo NETosis)
Description: This specification describes an assay for the assessment of 1) the EC50 of NETotic agonists in adherent human neutrophils and 2) the NETosis mechanism specific to these agonists. Neutrophils were isolated from peripheral blood of healthy volunteers and allowed to adhere to 96-well plates before stimulation with different concentrations of agonists. We established our assay with two widely used agonists, PMA, a PKC activator and A23187, a Ca+2 ionophore. NETosis data were acquired using the automated BD Pathway 855 Bio-imaging Systems. An image processing algorithm was created to distinguish two populations related to neutrophil nuclear size, intensity and texture. Our assay is the first to describe a semi-automated imaging and analysis method for the study of NETosis and is a positive step towards standardizing the quantitation of NETosis in isolated cells. This assay has potential applications in screening novel pharmaceuticals and in analyzing cells from patients with various diseases.
Adherent neutrophils were treated for 2 hours with either agonist or DMSO vehicle. DMSO treatment alone causes neutrophil NETosis reaching a maximum response of 30% with 0.16% DMSO. The resulting NETotic nuclei are visually indistinguishable from those observed with PMA- or A23187-treatments as shown graph 204. DMSO is the recommended solvent for both PMA and A23187. […]

SMILES	NETosis response of SCD neutrophils compared with non-SCD neutrophils [1]	EC50 ([2]; Homo sapiens, Neutrophil, n=8, 2 hours treatment, PADIV-dependent pathway)	EC50 ([2]; n=11, 2 hours treatment, ROS-dependent pathway)
CNc1ccc2oc(C[C@H]3O[C@@]4(CC[C@H]3C)O[C@H]([C@H](C)C(=O)c3ccc[nH]3)[C@H](C)C[C@H]4C)nc2c1C(=O)O [A23187, Calcimycin]	responded similarly; also recorded: little difference was observed between SCD and non-SCD	900 nM	
CCCCCCCCCCCCCC(=O)O[C@@H]1[C@@H](C)[C@@]2(O)[C@@H](C=C(CO)C[C@]3(O)C(=O)C(C)=C[C@@H]23)[C@@H]2C(C)(C)[C@]12OC(C)=O [PMA]	comparatively insensitive; also recorded: responded poorly		2.1 nM
